Results as given in patent publication US4555572A, “Pyrazolo[3,4,5-kl]acridine compositions and methods for their production and use” (Warner-Lambert Company, priority 1984, dated 1985).
Structures can show the parent of a compound that is named as a salt. Where two headings read alike, the source gives them in different places.

How the values were obtained:
HCT-8 cells = test: in vitro proliferating human colon adenocarcinoma (HCA) cell screen, HCT-8; type: cell-based; settings: HCT-8 cells, 60 to 65 hours, ED50, read-out: HCA ED50 Avg.
Method: (a) One test protocol is the in vitro proliferating human colon adenocarcinoma (HCA) cell screen. In this test, HCT-8 cells (HCA cell line received from Yale University) are trypsinized using trypsin-EDTA. A single cell suspension is achieved by passing the cells through a 26 gauge needle with a 20-cc syringe. A cell suspension is prepared using RPMI 1640+10% FCS+50 μg/ml gentamicin sulfate with a cell concentration is approximately 30,000 cells/ml. The cell suspension is dispensed in Linbro 24-well plates; 1 ml/well. The plates are incubated for approximately 48 hours at 37° C. in a 5% CO2 atmosphere. At this time test compounds are added in the appropriate concentration. Five μl of the 200 μg/ml stock solution is added to each well in a primary test. […] of the appropriate dilution is added to each well for a titration test. The plates are reincubated an additional 60 to 65 hours at 37° C. in a 5% CO 2 atmosphere. The cells are lysed using a mix of cationic surfactant, glacial acetic acid, and sodium chloride. Two ml of the lysed cell suspension from each well is added to 8 ml of diluent. The number of nuclei is determined using a Coulter counter (ZBI model), and a percent growth for each drug concentration is calculated. From this, and ID50 (molar concentration of compound that results in 50% inhibition of growth) is determined.

L1210 cells = test: PDC test, L1210 cell growth; type: cell-based, murine; settings: Mus musculus, read-out: PDC ID50
Method: (c) Another test protocol is the PDC test. L1210 cells, a murine leukemia cell line, were grown in RPMI 1640 supplemented with 10% fetal bovine serum and genamicin (50 μg/ml). Drug dilutions were prepared in the appropriate solvent and 20 μl of each dilution were added to 24-well Linbro tissue culture plates followed by the addition of 2.0 ml of cell suspension containing 3×10^4 cells per ml. Solvent and medium controls were included in each test. After incubation at 37° C. for three days in 5% CO2 in air, the contents of each well were removed and the cells counted in a ZBI Coulter counter. Per cent growth was calculated relative to the controls and the levels of drug activity were expressed as ID50 in terms of molarity (M).

Alcaligenes viscolactis = test: in vitro antibacterial (ABMF) microdilution susceptibility test; type: cell-based; settings: read-out: ABMF Test M.I.C. A. visc.
Description: (§1) (d) Still another test protocol is the in vitro antibacterial (ABMF) test which is a recognized standard microdilution susceptibility procedure in Mueller-Hinton broth against gram-positive and gram-negative bacterial test organisms. The procedure is a modification of a state-of-the-art procedure reported in Manual of Clinical Microbiology, Lennette, E. H., ed., by Barry, A. L. and C. Thornsberry at pages 463-474 and by Gavan, T. L. and A. L. Barry at pages 459-462, American Society for Microbiology, Washington, 1980.
(§2) In the test, a given bacterial culture is used to inoculate individaul test wells of microdilution trays containing growth medium and test compound, the latter in a microdilution series: 1000, 333, 111, 37, 12, 4, 1.4, and 0.46 micrograms per milliliter. […] For convenience, values are reported for Escherichia coli, Branhamella catarrhalis, Alcaligenes viscolactis, Streptococcus pneumoniae, and Bacillus cereus

Bacillus cereus = test: as above; type: cell-based; settings: read-out: ABMF Test M.I.C. B. cere.
Description: as §1, §2

Branhamella catarrhalis = test: as above; type: cell-based; settings: Moraxella catarrhalis, read-out: ABMF Test M.I.C. B. cata.
Description: as §1, §2

Escherichia coli = test: as above; type: cell-based; settings: read-out: ABMF Test M.I.C. E. coli
Description: as §1, §2

Streptococcus pneumoniae = test: as above; type: cell-based; settings: read-out: ABMF Test M.I.C. S. pneu.
Description: as §1, §2

[1] = test system: lymphocytic leukemia P388; test: in vivo lymphocytic leukemia P388 test; set-up: species or system CD2 F1 mice; settings: Mus musculus, P388, ip, 120 h, intraperitoneally once daily for five days, read-out: P388 in vivo T/C × 100
Method: Another test protocol is the in vivo lymphocytic leukemia P388 test. The animals used are either male or female CD2 F1 mice, six or seven animals per test group. The tumor transplant is by intraperitoneal injection of dilute ascitic fluid containing cells of lymphocytic leukemia P388. The test compounds are administered intraperitoneally once daily for five consecutive days at various doses following tumor inoculation. The animals are weighed and survivors are recorded on a regular basis for 30 days. A compound is designated "toxic" if, at a given dose, all animals died prior to four days after the first injection of drug. A ratio of survival time for treated (T)/control (C) animals is calculated. A criterion for efficacy is a ratio T/C times 100 greater than or equal to 125. See Cancer Chemotherapy Reports, Part 3, 3, 1 (1972) for a comprehensive discussion of the protocol.

[2] = Mueller-Hinton broth, 37° C., 16-24 hours

Compound	IC50 (L1210 cells; 72 h, L1210 cells, three days)	MIC (Alcaligenes viscolactis; [2])	MIC (Bacillus cereus; [2])	MIC (Branhamella catarrhalis; [2])	MIC (Escherichia coli; [2])	MIC (Streptococcus pneumoniae; [2])	response vs control in vivo at 6.25 mg/kg [1]	response vs control in vivo at 12.5 mg/kg [1]	further results
CCOc1ccc2c(c1)-c1nn(CCNCCO)c3ccc([N+](=O)[O-])c(c13)N2 [Example 40, 2-[[2-(9-Ethoxy-5-nitropyrazolo[3,4,5-kl]acridin-2(6H)-yl)ethyl]amino]ethanol, monohydrochloride, hydrate (4:1)]	320 nM	< 0.46 µg/mL	< 0.46 µg/mL	4.1 µg/mL	4.1 µg/mL	< 0.46 µg/mL	134%	156%	IC50 (HCT-8 cells): 82 nM; response vs control in vivo at 25 mg/kg [1]: 169%; response vs control in vivo at 50 mg/kg [1]: 195%
CCOC(=O)Oc1ccc2c(c1)-c1nn(CCN(CC)CC)c3ccc([N+](=O)[O-])c(c13)N2 [Example 32, [2-[2-(Diethylamino)ethyl]-2,6-dihydro-5-nitropyrazolo [3,4,5-kl]acridin-9-yl]carbonic acid ethyl ester, methanesulfonate (salt) (1:1)]	3.2 nM	< 0.46 µg/mL	< 0.46 µg/mL	1.4 µg/mL	4.1 µg/mL	< 0.46 µg/mL	168%	–	response vs control in vivo at 3.12 mg/kg ([1]; 3.12 mg/kg): 208%
CN(C)CCn1nc2c3c(c([N+](=O)[O-])ccc31)Nc1ccc(N(C)C)cc1-2 [Example 39, 9-(Dimethylamino)-N,N-dimethyl-5-nitropyrazolo[3,4,5-kl]acridine-2(6H)-ethanamine, methanesulfonate (1:2), dihydrate]	600 nM	1.4 µg/mL	12.3 µg/mL	12.3 µg/mL	12.3 µg/mL	1.4 µg/mL	126%	164%	response vs control in vivo at 25 mg/kg [1]: 189%
CCCCCCCC(=O)Oc1ccc2c(c1)-c1nn(CCN(CC)CC)c3ccc([N+](=O)[O-])c(c13)N2 [Example 30, Octanoic acid,[2-[2-(diethylamino)ethyl]-2,6-dihydro-5-nitropyrazolo[3,4,5-kl]acridin-9-yl]ester, methanesulfonate (1:1), hemihydrate]	4.3 nM	< 0.46 µg/mL	37 µg/mL	12.3 µg/mL	37 µg/mL	< 0.46 µg/mL	–	–	–
COc1ccc2c(c1)-c1nn(CCCN(C)C)c3c([N+](=O)[O-])cc([N+](=O)[O-])c(c13)N2.CS(=O)(=O)O [Example 55, N,N-Dimethyl-3,5-dinitro-9-methoxypyrazolo[3,4,5-kl]acridine-2(6H)-propanamine, methanesulfonate (1:1)]	–	–	–	–	–	–	–	–	IC50 (L1210 cells; L1210, 72 h): 220 nM; MIC (Alcaligenes viscolactis): < 0.46 µg/mL; MIC (Bacillus cereus): < 0.46 µg/mL; MIC (Branhamella catarrhalis): < 0.46 µg/mL; MIC (Escherichia coli): < 0.46 µg/mL; MIC (Streptococcus pneumoniae): < 0.46 µg/mL
CCN(CC)CCn1nc2c3c(c([N+](=O)[O-])ccc31)Nc1ccc(OC)c(Cl)c1-2 [Example 25, 10-Chloro-N,N-diethyl-9-methoxy-5-nitropyrazolo[3,4,5-kl]acridine-2(6Hethanamine, methanesulfonate, hydrate]	70 nM	< 0.46 µg/mL	< 0.46 µg/mL	< 0.46 µg/mL	< 0.46 µg/mL	< 0.46 µg/mL	–	–	–
Cc1ccc2c(c1)-c1nn(CCNCCO)c3ccc([N+](=O)[O-])c(c13)N2.Cl [Example 42, 2-[[2-(9-Methyl-5-nitropyrazolo[3,4,5-kl]acridin-2(6H)-yl)ethyl]amino]ethanol, monohydrochloride]	590 nM	< 0.46 µg/mL	< 0.46 µg/mL	< 0.46 µg/mL	< 0.46 µg/mL	< 0.46 µg/mL	–	–	–

Continued, in another order:

IC50 (L1210 cells; 72 h, L1210 cells, three days)	MIC (Alcaligenes viscolactis; [2])	MIC (Bacillus cereus; [2])	MIC (Branhamella catarrhalis; [2])	MIC (Escherichia coli; [2])	MIC (Streptococcus pneumoniae; [2])	Compound	response vs control in vivo at 6.25 mg/kg [1]	response vs control in vivo at 12.5 mg/kg [1]	further results
1300 nM	< 0.46 µg/mL	4.1 µg/mL	4.1 µg/mL	1.4 µg/mL	< 0.46 µg/mL	CCN(CC)CCCn1nc2c3c(c([N+](=O)[O-])ccc31)Nc1ccc(OC)cc1-2 [Example 43, N,N-Diethyl-9-methoxy-5-nitropyrazolo[3,4,5-kl]acridine-2(6H)-propanamine, methanesulfonate, hydrate (1:1)]	165%	184%	response vs control in vivo at 50 mg/kg [1]: 202%
9.8 nM	0.46 µg/mL	333 µg/mL	1.4 µg/mL	3.7 µg/mL	4.1 µg/mL	CN(C)CCCn1nc2c3c(c([N+](=O)[O-])ccc31)Nc1ccc(OC(=O)C(C)(C)C)cc1-2 [Example 48, 2-[3-(Dimethylamino)propyl]-5-nitropyrazolo[3,4,5-kl]acridin-9-ol, 2,2-dimethylpropanoate (ester), methanesulfonate (salt) (1:1)]	–	–	response vs control in vivo at 0.78 mg/kg [1]: 175%; response vs control in vivo at 1.56 mg/kg ([1]; 1.56 mg/kg): 263%
1.9 nM	< 0.46 µg/mL	< 0.46 µg/mL	< 0.46 µg/mL	< 0.46 µg/mL	< 0.46 µg/mL	CC(=O)Oc1ccc2c(c1)-c1nn(CCCN(C)C)c3ccc([N+](=O)[O-])c(c13)N2 [Example 47, 2-[3-(Dimethylamino)propyl]-5-nitropyrazolo[3,4,5-kl]acridin-9-ol, acetate (ester), methanesulfonate (salt) (1:1)]	–	–	response vs control in vivo at 0.39 mg/kg ([1]; 0.39 mg/kg): 144%; response vs control in vivo at 0.78 mg/kg [1]: 178%
